Reference: ChEMBL document CHEMBL2413072, “Synthesis and in vitro anticancer studies of novel C-2 arylidene congeners of lantadenes” (2013)

What was measured:
Type in all cases: functional
SR = assay: Growth inhibition of human SR cells by sulforhodamine B assay
U-251 = assay: Growth inhibition of human U251 cells assessed as cell growth at 10^-8 M by sulforhodamine B assay; settings: read-out: Activity
SF-295 = assay: Growth inhibition of human SF295 cells assessed as cell growth at 10^-8 M by sulforhodamine B assay; settings: read-out: Activity
HT-29 [1] = assay: Growth inhibition of human HT-29 cells assessed as cell growth at 10^-8 M by sulforhodamine B assay; settings: read-out: Activity
HL-60(TB) = assay: Growth inhibition of human HL-60(TB) cells assessed as cell growth at 10^-8 M by sulforhodamine B assay; settings: read-out: Activity
OVCAR-8 [2] = assay: Growth inhibition of human OVCAR8 cells by sulforhodamine B assay
OVCAR-4 [3] = assay: Growth inhibition of human OVCAR4 cells by sulforhodamine B assay
UACC-257 = assay: Growth inhibition of human UACC257 cells by sulforhodamine B assay
LOX IMVI [4] = assay: Growth inhibition of human LOXIMVI cells by sulforhodamine B assay
TK-10 [5] = assay: Growth inhibition of human TK10 cells assessed as cell growth at 10^-4 M by sulforhodamine B assay; settings: read-out: Activity
786-0 = assay: Growth inhibition of human 786-0 cells assessed as cell growth at 10^-4 M by sulforhodamine B assay; settings: read-out: Activity
UACC-62 = assay: Growth inhibition of human UACC62 cells assessed as cell growth at 10^-4 M by sulforhodamine B assay; settings: read-out: Activity
SW-620 [6] = assay: Growth inhibition of human SW620 cells assessed as cell growth at 10^-4 M by sulforhodamine B assay; settings: read-out: Activity
NCI-H460 = assay: Growth inhibition of human NCI-H460 cells assessed as cell growth at 10^-4 M by sulforhodamine B assay; settings: read-out: Activity
DU-145 = assay: Growth inhibition of human DU145 cells assessed as cell growth at 10^-6 M by sulforhodamine B assay; settings: read-out: Activity
A498 = assay: Growth inhibition of human A498 cells assessed as cell growth at 10^-6 M by sulforhodamine B assay; settings: read-out: Activity
OVCAR-8 [7] = assay: Growth inhibition of human OVCAR8 cells assessed as cell growth at 10^-6 M by sulforhodamine B assay; settings: read-out: Activity
OVCAR-4 [8] = assay: Growth inhibition of human OVCAR4 cells assessed as cell growth at 10^-6 M by sulforhodamine B assay; settings: read-out: Activity
SK-MEL-28 = assay: Growth inhibition of human SK-MEL-28 cells assessed as cell growth at 10^-6 M by sulforhodamine B assay; settings: read-out: Activity
SK-MEL-2 = assay: Growth inhibition of human SK-MEL-2 cells assessed as cell growth at 10^-6 M by sulforhodamine B assay; settings: read-out: Activity
SF-539 = assay: Growth inhibition of human SF539 cells assessed as cell growth at 10^-6 M by sulforhodamine B assay; settings: read-out: Activity
SW-620 [9] = assay: Growth inhibition of human SW620 cells assessed as cell growth at 10^-6 M by sulforhodamine B assay; settings: read-out: Activity
KM12 = assay: Growth inhibition of human KM12 cells assessed as cell growth at 10^-6 M by sulforhodamine B assay; settings: read-out: Activity
HT-29 [10] = assay: Growth inhibition of human HT-29 cells assessed as cell growth at 10^-6 M by sulforhodamine B assay; settings: read-out: Activity
HCT-116 = assay: Growth inhibition of human HCT116 cells assessed as cell growth at 10^-6 M by sulforhodamine B assay; settings: read-out: Activity
[11] = Growth inhibition of human HCC2998 cells assessed as cell growth at 10^-6 M by sulforhodamine B assay; settings: HCC 2998, read-out: Activity
COLO 205 [12] = assay: Growth inhibition of human COLO205 cells assessed as cell growth at 10^-6 M by sulforhodamine B assay; settings: read-out: Activity
CCRF-CEM [13] = assay: Growth inhibition of human CCRF-CEM cells assessed as cell growth at 10^-6 M by sulforhodamine B assay; settings: read-out: Activity
MDA-MB-231 = assay: Growth inhibition of human MDA-MB-231 cells assessed as cell growth at 10^-7 M by sulforhodamine B assay; settings: read-out: Activity
ACHN = assay: Growth inhibition of human ACHN cells assessed as cell growth at 10^-7 M by sulforhodamine B assay; settings: read-out: Activity
SK-OV-3 = assay: Growth inhibition of human SKOV3 cells assessed as cell growth at 10^-7 M by sulforhodamine B assay; settings: read-out: Activity
[14] = Growth inhibition of human NCI-ADR-RES cells assessed as cell growth at 10^-7 M by sulforhodamine B assay; settings: read-out: Activity
M14 = assay: Growth inhibition of human M14 cells assessed as cell growth at 10^-7 M by sulforhodamine B assay; settings: read-out: Activity
Malme-3M = assay: Growth inhibition of human MALME-3M cells assessed as cell growth at 10^-7 M by sulforhodamine B assay; settings: read-out: Activity
LOX IMVI [15] = assay: Growth inhibition of human LOXIMVI cells assessed as cell growth at 10^-7 M by sulforhodamine B assay; settings: read-out: Activity
SW-620 [16] = assay: Growth inhibition of human SW620 cells assessed as cell growth at 10^-7 M by sulforhodamine B assay; settings: read-out: Activity
COLO 205 [17] = assay: Growth inhibition of human COLO205 cells assessed as cell growth at 10^-7 M by sulforhodamine B assay; settings: read-out: Activity
NCI-H322M = assay: Growth inhibition of human NCI-H322M cells assessed as cell growth at 10^-7 M by sulforhodamine B assay; settings: read-out: Activity
CCRF-CEM [18] = assay: Growth inhibition of human CCRF-CEM cells assessed as cell growth at 10^-7 M by sulforhodamine B assay; settings: read-out: Activity
TK-10 [19] = assay: Growth inhibition of human TK10 cells assessed as cell growth at 10^-8 M by sulforhodamine B assay; settings: read-out: Activity
SN12C = assay: Growth inhibition of human SN12C cells assessed as cell growth at 10^-8 M by sulforhodamine B assay; settings: read-out: Activity
CAKI-1 = assay: Growth inhibition of human CAKI-1 cells assessed as cell growth at 10^-8 M by sulforhodamine B assay; settings: read-out: Activity
OVCAR-4 [20] = assay: Growth inhibition of human OVCAR4 cells assessed as cell growth at 10^-8 M by sulforhodamine B assay; settings: read-out: Activity
[21] = read-out: LC50 (the source's name)
[22] = read-out: pLC50 (the source's name) (converted)

CC(C)=CC(=O)O[C@@H]1CC(C)(C)C[C@H]2C3=CC[C@@H]4[C@@]5(C)CCC(=O)C(C)(C)[C@@H]5CC[C@@]4(C)[C@]3(C)CC[C@@]12C(=O)O
GI50 (SR; read-out: GI50): 3.75 µM | CC50 (SR; [21]): > 100 µM | TGI (SR; read-out: TGI): 33.8 µM | GI50 (SR; read-out: pGI50 (converted)): 3.72 µM | CC50 (SR; [22]): > 100 µM | TGI (SR; read-out: pTGI (converted)): 33.9 µM | growth at 0.01 µM (U-251): 92% | growth at 0.01 µM (SF-295): 86% | growth at 0.01 µM (HT-29 [1]): 101% | growth at 0.01 µM (HL-60(TB)): 106% | GI50 (OVCAR-8 [2]; read-out: GI50): 3.81 µM | CC50 (OVCAR-8 [2]; [21]): > 100 µM | TGI (OVCAR-8 [2]; read-out: TGI): > 100 µM | GI50 (OVCAR-8 [2]; read-out: pGI50 (converted)): 3.8 µM | CC50 (OVCAR-8 [2]; [22]): > 100 µM | TGI (OVCAR-8 [2]; read-out: pTGI (converted)): > 100 µM | GI50 (OVCAR-4 [3]; read-out: GI50): 5.07 µM | CC50 (OVCAR-4 [3]; [21]): > 100 µM | TGI (OVCAR-4 [3]; read-out: TGI): > 100 µM | GI50 (OVCAR-4 [3]; read-out: pGI50 (converted)): 5.01 µM | CC50 (OVCAR-4 [3]; [22]): > 100 µM | TGI (OVCAR-4 [3]; read-out: pTGI (converted)): > 100 µM | GI50 (UACC-257; read-out: GI50): 4.98 µM | CC50 (UACC-257; [21]): > 100 µM | TGI (UACC-257; read-out: TGI): 50.6 µM | GI50 (UACC-257; read-out: pGI50 (converted)): 5.01 µM | CC50 (UACC-257; [22]): > 100 µM | TGI (UACC-257; read-out: pTGI (converted)): 50.1 µM | GI50 (LOX IMVI [4]; read-out: GI50): 6.32 µM | CC50 (LOX IMVI [4]; [21]): > 100 µM | TGI (LOX IMVI [4]; read-out: TGI): 29.3 µM | GI50 (LOX IMVI [4]; read-out: pGI50 (converted)): 6.31 µM | CC50 (LOX IMVI [4]; [22]): > 100 µM | TGI (LOX IMVI [4]; read-out: pTGI (converted)): 29.5 µM | growth at 100 µM (TK-10 [5]): -18% | growth at 100 µM (786-0): -42% | growth at 100 µM (UACC-62): -80% | growth at 100 µM (SW-620 [6]): -22% | growth at 100 µM (NCI-H460): -54% | growth at 1 µM (DU-145): 90% | growth at 1 µM (A498): 61% | growth at 1 µM (OVCAR-8 [7]): 79% | growth at 1 µM (OVCAR-4 [8]): 83% | growth at 1 µM (SK-MEL-28): 103% | growth at 1 µM (SK-MEL-2): 85% | growth at 1 µM (SF-539): 90% | growth at 1 µM (SW-620 [9]): 83% | growth at 1 µM (KM12): 48% | growth at 1 µM (HT-29 [10]): 82% | growth at 1 µM (HCT-116): 70% | growth at 1 µM [11]: 88% | growth at 1 µM (COLO 205 [12]): 103% | growth at 1 µM (CCRF-CEM [13]): 71% | growth at 0.1 µM (MDA-MB-231): 93% | growth at 0.1 µM (ACHN): 92% | growth at 0.1 µM (SK-OV-3): 106% | growth at 0.1 µM [14]: 95% | growth at 0.1 µM (M14): 94% | growth at 0.1 µM (Malme-3M): 90% | growth at 0.1 µM (LOX IMVI [15]): 92% | growth at 0.1 µM (SW-620 [16]): 97% | growth at 0.1 µM (COLO 205 [17]): 103% | growth at 0.1 µM (NCI-H322M): 90% | growth at 0.1 µM (CCRF-CEM [18]): 99% | growth at 0.01 µM (TK-10 [19]): 96% | growth at 0.01 µM (SN12C): 99% | growth at 0.01 µM (CAKI-1): 95% | growth at 0.01 µM (OVCAR-4 [20]): 99%
